The test system of the assay is quinolone-resistant Haemophilus influenzae strains. In words: Microdilution MIC determination in HTM for quinolone-resistant Haemophilus influenzae strains. It is filed as cell-based. How it is done: Inocula were prepared from chocolate agar plates incubated for a full 24 hours by the direct colony suspension method as follows: In a tube of Mueller-Hinton broth (Difco), an organism suspension was made to a density of a 0.5 McFarland standard (1×10^8 CFU/ml). The latter inoculum was diluted in sterile saline such that final organisms suspensions in trays yielded colony counts of 3-8×10^5 CFU/ml. Frozen microdilution trays were obtained from MicroMedia Systems, Inc. (Cleveland, Ohio, USA). Each tray contained all antimicrobials prepared in freshly made HTM. Wells were inoculated with 100 μl suspensions and incubated in ambient air at 35° C. for 20-24 hours. The lowest drug concentration showing no growth was read as the MIC. Standard quality control strains, including H. influenzae ATCC 49766, H. influenzae ATCC 49247, Staphylococcus aureus ATCC 29213 and Escherichia coli ATCC 25922 were included with each run.

The mark [1] stands for this setting: strain 1, mutations S133-A N138-S, None, S84-L.
Where [2] appears, read: strain 2, mutations NONE, S458-L, S84-F, None.
[3] abbreviates: strain 3, mutations S84-I, None, S84-L.
Where [4] appears, read: strain 4, mutations D83-N, S458-S-T459, S84-F D88-N, Q468-R.
Where [5] appears, read: strain 5, mutations E88-K, G405-S, S84-Y, None.
The mark [6] stands for this setting: strain 6, mutations S84-R, D420-N, S84-L A117-E, None.
The mark [7] stands for this setting: strain 7, mutations S84-R, D420-N, S84-L A117-E, None.
[8] abbreviates: strain 8, mutations S84-R, D420-N, S84-L A117-E, None.
The mark [9] stands for this setting: strain 9, mutations S84-R N138-S, S458-A S474-N, S84-F D88-Y, None.
Setting [10] is: strain 1, GyrA S84→L, ParC S133→A N138→S, GyrB None, ParE None.
[11] abbreviates: strain 2, GyrA S84→F, ParC None, GyrB None, ParE S458→L.
Setting [12] is: strain 3, GyrA S84→L, ParC S84→I, GyrB None, ParE None.
Where [13] appears, read: strain 4, GyrA S84→F D88→N, ParC D83→N, GyrB None, ParE T459→S.
[14] abbreviates: strain 5, GyrA S84→Y, ParC E88→K, GyrB Q468→R, ParE G405→S.
The mark [15] stands for this setting: strain 6, GyrA S84→L A117→E, ParC S84→R, GyrB None, ParE D420→N.
Where [16] appears, read: strain 7, GyrA S84→L A117→E, ParC S84→R, GyrB None, ParE D420→N.
The mark [17] stands for this setting: strain 8, GyrA S84→L A117→E, ParC S84→R, GyrB None, ParE D420→N.
Where [18] appears, read: strain 9, GyrA S84→F D88→Y, ParC S84→R N138→S, GyrB None, ParE S458→A S474→N.

SMILES strings stand for the structures. Converted amounts (≈) assume the structure as drawn.

`Cc1c(F)c(N2CCNC(C)C2)cc2c1c(=O)c(C(=O)O)cn2C1CC1` (stereo not drawn) [Grepa]: the MIC reads like this: under setting [1], 0.25 µg/mL (≈ 0.696 µM); under setting [2], 0.5 µg/mL (≈ 1.39 µM); under setting [3], 0.5 µg/mL (≈ 1.39 µM); under setting [4], 2 µg/mL (≈ 5.56 µM); under setting [5], 1 µg/mL (≈ 2.78 µM); under setting [6], 1 µg/mL (≈ 2.78 µM). Besides, the MIC runs as follows: under setting [7], 1 µg/mL (≈ 2.78 µM); under setting [8], 1 µg/mL (≈ 2.78 µM); under setting [9], 4 µg/mL (≈ 11.1 µM).

Regarding `N[C@@H]1[C@H]2CN(c3nc4c(cc3F)c(=O)c(C(=O)O)cn4-c3ccc(F)cc3F)C[C@@H]12` [Trova], the MIC reads like this: under setting [1], 1 µg/mL (≈ 2.4 µM); under setting [2], 0.25 µg/mL (≈ 0.6 µM); under setting [3], 1 µg/mL (≈ 2.4 µM); under setting [4], 0.5 µg/mL (≈ 1.2 µM); under setting [5], 1 µg/mL (≈ 2.4 µM); under setting [6], 4 µg/mL (≈ 9.61 µM). The MIC was found to be 4 µg/mL (≈ 9.61 µM) under setting [7], 4 µg/mL (≈ 9.61 µM) under setting [8] and 8 µg/mL (≈ 19.2 µM) under setting [9].

`C[C@H]1COc2c(N3CCN(C)CC3)c(F)cc3c(=O)c(C(=O)O)cn1c23` [Lev] came in with an MICs under setting [10] of 0.5 µg/mL; an MICs under setting [11] of 0.25 µg/mL; an MICs under setting [12] of 1 µg/mL; an MICs under setting [13] of 0.5 µg/mL; an MICs under setting [14] of 1 µg/mL; an MICs under setting [15] of 2 µg/mL. The MICs is, setting by setting: under setting [16], 2 µg/mL; under setting [17], 2 µg/mL; under setting [18], 4 µg/mL.

On to `O=C(O)c1cn(C2CC2)c2cc(N3CCNCC3)c(F)cc2c1=O` [Cipro], for which the MIC is, setting by setting: (Haemophilus influenzae, strain 1, mutations S133-A N138-S, None, S84-L) 0.5 µg/mL (≈ 1.51 µM); (Haemophilus influenzae, strain 2, mutations NONE, S458-L, S84-F, None) 0.25 µg/mL (≈ 0.754 µM); (Haemophilus influenzae, strain 3, mutations S84-I, None, S84-L) 1 µg/mL (≈ 3.02 µM); (Haemophilus influenzae, strain 4, mutations D83-N, S458-S-T459, S84-F D88-N, Q468-R) 1 µg/mL (≈ 3.02 µM); (Haemophilus influenzae, strain 5, mutations E88-K, G405-S, S84-Y, None) 1 µg/mL (≈ 3.02 µM); (Haemophilus influenzae, strain 6, mutations S84-R, D420-N, S84-L A117-E, None) 2 µg/mL (≈ 6.04 µM). The MIC is, setting by setting: (Haemophilus influenzae, strain 7, mutations S84-R, D420-N, S84-L A117-E, None) 2 µg/mL (≈ 6.04 µM); (Haemophilus influenzae, strain 8, mutations S84-R, D420-N, S84-L A117-E, None) 2 µg/mL (≈ 6.04 µM); (Haemophilus influenzae, strain 9, mutations S84-R N138-S, S458-A S474-N, S84-F D88-Y, None) 8 µg/mL (≈ 24.1 µM).

In the case of `CO/N=C1\CN(c2nc3c(cc2F)c(=O)c(C(=O)O)cn3C2CC2)CC1CN` (stereo not drawn) [Gemi], the MIC came to 0.03 µg/mL (≈ 0.077 µM) under setting [1]; 0.125 µg/mL (≈ 0.321 µM) under setting [2]; 0.125 µg/mL (≈ 0.321 µM) under setting [3]; 0.25 µg/mL (≈ 0.642 µM) under setting [4]; 0.25 µg/mL (≈ 0.642 µM) under setting [5]; 0.5 µg/mL (≈ 1.28 µM) under setting [6]. In addition, the MIC came to 0.5 µg/mL (≈ 1.28 µM) under setting [7], 0.5 µg/mL (≈ 1.28 µM) under setting [8] and 1 µg/mL (≈ 2.57 µM) under setting [9].

With `Cc1c(F)c(N2CCNC(C)C2)cc2c1c(=O)c(C(=O)O)cn2C1CC1` (stereo not drawn) [Gre], the MICs under setting [10] came out at 0.25 µg/mL; the MICs under setting [11] was found to be 0.5 µg/mL; the MICs under setting [12] turned out to be 0.5 µg/mL; the MICs under setting [13] turned out to be 2 µg/mL; the MICs under setting [14] came out at 1 µg/mL; the MICs under setting [15] came to 1 µg/mL. For the same compound, the MICs was determined as 1 µg/mL under setting [16], 1 µg/mL under setting [17] and 4 µg/mL under setting [18].

With `C[C@@H]1CN(c2c(F)c(N)c3c(=O)c(C(=O)O)cn(C4CC4)c3c2F)C[C@H](C)N1` [Spa], the MICs reads like this: under setting [10], 0.25 µg/mL; under setting [11], 0.25 µg/mL; under setting [12], 0.5 µg/mL; under setting [13], 0.25 µg/mL; under setting [14], 1 µg/mL; under setting [15], 1 µg/mL. The MICs is, setting by setting: under setting [16], 1 µg/mL; under setting [17], 1 µg/mL; under setting [18], 8 µg/mL.

In the case of `O=C(O)c1cn(C2CC2)c2cc(N3CCNCC3)c(F)cc2c1=O` [Cip], the MICs under setting [10] stood at 0.5 µg/mL; the MICs under setting [11] is 0.25 µg/mL; the MICs under setting [12] turned out to be 1 µg/mL; the MICs under setting [13] was 1 µg/mL; the MICs under setting [14] stood at 1 µg/mL; the MICs under setting [15] was 2 µg/mL. For the same compound, the MICs runs as follows: under setting [16], 2 µg/mL; under setting [17], 2 µg/mL; under setting [18], 8 µg/mL.

Consider `C[C@@H]1CN(c2c(F)c(N)c3c(=O)c(C(=O)O)cn(C4CC4)c3c2F)C[C@H](C)N1` [Spar], for which the MIC came out at 0.25 µg/mL (≈ 0.637 µM) under setting [1]; 0.25 µg/mL (≈ 0.637 µM) under setting [2]; 0.5 µg/mL (≈ 1.27 µM) under setting [3]; 0.25 µg/mL (≈ 0.637 µM) under setting [4]; 1 µg/mL (≈ 2.55 µM) under setting [5]; 1 µg/mL (≈ 2.55 µM) under setting [6]. Further, the MIC by setting is: under setting [7], 1 µg/mL (≈ 2.55 µM); under setting [8], 1 µg/mL (≈ 2.55 µM); under setting [9], 8 µg/mL (≈ 20.4 µM).

Consider `N[C@@H]1[C@H]2CN(c3nc4c(cc3F)c(=O)c(C(=O)O)cn4-c3ccc(F)cc3F)C[C@@H]12` [Tro], for which the MICs reads like this: under setting [10], 1 µg/mL; under setting [11], 0.25 µg/mL; under setting [12], 1 µg/mL; under setting [13], 0.5 µg/mL; under setting [14], 1 µg/mL; under setting [15], 4 µg/mL. The MICs by setting is: under setting [16], 4 µg/mL; under setting [17], 4 µg/mL; under setting [18], 8 µg/mL.

For `C[C@H]1COc2c(N3CCN(C)CC3)c(F)cc3c(=O)c(C(=O)O)cn1c23` [Levo], the MIC runs as follows: under setting [1], 0.5 µg/mL (≈ 1.38 µM); under setting [2], 0.25 µg/mL (≈ 0.692 µM); under setting [3], 1 µg/mL (≈ 2.77 µM); under setting [4], 0.5 µg/mL (≈ 1.38 µM); under setting [5], 1 µg/mL (≈ 2.77 µM); under setting [6], 2 µg/mL (≈ 5.53 µM). Further, the MIC was determined as 2 µg/mL (≈ 5.53 µM) under setting [7], 2 µg/mL (≈ 5.53 µM) under setting [8] and 4 µg/mL (≈ 11.1 µM) under setting [9].

The values are drawn from patent publication US20040044006A1, “Methods of use of quinolone compounds against pneumococcal and haemophilus bacteria” (priority 1999, published 2004).
